For nine molecules, TGI results are on record in PubChem BioAssay (NCI).

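These data come from cells grown in 96-well plates and exposed to compound for 48 hours at five concentrations. The concentration for full growth arrest is given as TGI.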 Bounds are passed on as bounds.

Common to all, as to test: growth of human tumour cells (NCI), 48 h
Test [1] relates to KM12 colon.
Test [2] has as its system HS 578T breast.
Test [3] has as its system A549 NSCLC.
In test [4] the test system is PC-3 prostate.
Test [5] concerns ACHN renal.
Test [6] has as its system SF-539 CNS.
Test [7] has as its system MALME-3M melanoma.
Test [8] deals with OVCAR-5 ovarian.
For test [9], the system named is MOLT-4 leukemia.
Test [10] relates to UACC-257 melanoma.
Test [11] has as its system IGROV1 ovarian.
Test [12] deals with HCT-116 colon.
Test [13] has as its system NCI-H522 lung.
For test [14], the system named is SK-OV-3 ovarian.
Test [15] deals with SK-MEL-28 melanoma.
The subject of test [16] is HOP-92 NSCLC.

Regarding `O=C(C1OC1c1cccc([N+](=O)[O-])c1)C12CC3CC(CC(C3)C1)C2` (configuration not stated), the TGI in test [1] turned out to be 13.9 µM; in [2], 14.3 µM; in test [3], 26.6 µM; in test [4] it was 16.1 µM; in test [5], 23 µM; in test [6], 22.6 µM. Also, the TGI is 27.9 µM in test [7]; 18.9 µM in [8]; more than 22.8 µM in test [9]; 25.4 µM in [10]; 20.2 µM in [11]; 4.69 µM in [12]. Besides, the TGI in test [13] amounted to 9.76 µM; in test [14] it was 31.6 µM; in test [15] it was 25.6 µM; in test [16] it was 25.3 µM.

On to `C=CCCC(=O)C(=[N+]=[N-])C(=O)CCC(=O)c1ccccc1`, for which the TGI in test [2], in [3], in [4], in test [5], in test [6] and in [7] was more than 10 µM each time. In addition, the TGI in test [8], in [9], in [10], in test [11], in [14] and in test [15] was more than 10 µM each time. Moreover, in test [16], the TGI is more than 10 µM.

In the case of `C=CC[C@]1(C2=NC(C)(C)CO2)c2ccccc2-c2ccccc2[C@H]1C(C)=O`, the TGI is 38.6 µM in [1]; 25.1 µM in test [2]; 36.8 µM in test [3]; 27.7 µM in test [4]; more than 45.9 µM in test [5]; 25.1 µM in [6]. Moreover, the TGI in test [7] was 21 µM; in test [8], 51 µM; in test [9] it was 50 µM; in test [10], 24 µM; in test [11], more than 48.6 µM; in [12] it was 20.2 µM. For the same molecule, the TGI in [13] was 9.45 µM; in test [14], more than 54.9 µM; in [15] it was more than 54.5 µM; in test [16], 39.8 µM.

For the molecule `CCOC(=O)c1nc2cc(C(F)(F)F)ccc2nc1Oc1ccc(F)cc1`, the TGI in test [1], in test [2], in [3], in [4], in test [5] and in [6] was more than 100 µM throughout. Also, the TGI in test [7] is more than 100 µM; in [8], more than 100 µM; in test [9], more than 100 µM; in test [10] it was more than 100 µM; in test [11], more than 100 µM; in [12], 64.2 µM. Also, the TGI in test [13], in test [15] and in test [16] was more than 100 µM in each case.

Turning to `C=CCn1c(-c2ccc(Cl)cc2)csc1=Nc1ccccc1OC`, the TGI in test [1], in [2], in test [3], in [4], in test [5] and in test [6] was more than 100 µM each time. In addition, the TGI in [7] was more than 100 µM; in test [8] it was more than 100 µM; in [9] it was 14.9 µM; in [10], 29.7 µM; in [11], more than 100 µM; in [12], more than 100 µM. Moreover, the TGI in [14], in test [15] and in [16] was more than 100 µM each time.

Consider `O=c1c2c3c(sc2nc2n1N=CN(c1ccc(F)cc1)C2)CCCC3`, for which the TGI in [1], in test [2], in test [3], in test [4], in test [5] and in test [7] was more than 100 µM each time. Also, the TGI in test [8], in test [9], in test [10], in [11], in [12] and in [13] was more than 100 µM in each case. The TGI in test [14], in test [15] and in test [16] was more than 100 µM in each case.

As to `CCOC(=O)/C=C(/C(=O)OCC)n1ccc(=O)n(Cc2cnnn2CCCCOC(C)=O)c1=O`, the TGI in [1], in test [2], in [3], in test [4], in test [5] and in [6] was more than 100 µM throughout. For the same molecule, the TGI in test [8] is more than 100 µM; in [9], more than 100 µM; in [10], more than 100 µM; in [11], more than 100 µM; in test [12], more than 100 µM; in [13], 42.6 µM. The results for the TGI in [14], in [15] and in test [16] were more than 100 µM, more than 100 µM and 45.7 µM, respectively.

For `C/C(=N\NC(N)=S)c1sc(-n2nc(-c3ccccc3)cc2-c2ccccc2)nc1C`, the TGI in [1], in test [2], in [3], in test [4], in test [5] and in test [6] was more than 100 µM throughout. Besides, the TGI in test [7], in [8], in test [9], in [10], in test [11] and in [12] was more than 100 µM throughout. Also, the TGI in test [13], in test [14], in test [15] and in test [16] was more than 100 µM each time.

For `O=C1NC(=Nc2ccccc2)C(=Nc2ccccc2)N1c1ccccc1`, the TGI in [1] amounted to 32.8 µM; in test [2], 42.9 µM; in test [3], 31 µM; in test [4], 27.6 µM; in test [5], 30.6 µM; in [6], 31.5 µM. Further, the TGI worked out at 31.6 µM in [7]; 32.7 µM in test [8]; 72.8 µM in [9]; 29.8 µM in test [10]; 31 µM in test [11]; 32.3 µM in [12]. For the same molecule, the TGI is 11.5 µM in test [13], 34.4 µM in test [14], 28.4 µM in test [15] and 30 µM in test [16].
